The text below walks through data of patent US20260174778A1, “SULFONAMIDE COMPOUND, AND PREPARATION METHOD THEREFOR AND USE THEREOF” (SHANGHAI HENLIUS BIOTECH, INC., priority 2023, published 2026).

A word on the pKi: it is the negative decadic logarithm of the Ki, by convention in mol/L. The low end stands for a large Ki, the high end for a small Ki. As a reminder, the pIC50 is −log10 of the IC50, conventionally taken in molar units. One may read the AUC(0-inf) as the area under the concentration-time curve extrapolated to infinity. A high value points to more exposure. The clearance is the rate of elimination divided by the concentration. One may read the bioavailability as the share of a dose that reaches the circulation, judged against a reference dose that is usually intravenous.

pIC50, pKi: −log10 of the molar value. Read-outs that look alike come from different tables or passages of the source.

Series [1] concerns ER-positive breast cancer. The following applies: preclinical studies, in vivo and in vitro; cited from earlier work.
The target of series [2] is T1, KAT7 (Homo sapiens, UniProt O95251).
T1 construct: purchased ACTIVE MOTIF 31889
As to the kind of experiment: Inhibition of human KAT enzymes, radioisotope method: KAT7. Format: biochemical. The note with it: for pKi: KAT7 (full-length), radioisotope method; for KAT7/ KAT6A / KAT7/ KAT6B: selectivity, ratio of Ki. The text has this: (§1) Test Example 2: Selective Inhibitory Effects of Test Compounds on Human KAT6 Enzymes (Radioisotope Method)
(§2) • 1. KAT6A (ACTIVE MOTIF, Cat. No. 81223) • 2. KAT5 (BPS, Cat. No. 79422) • 3. KAT7 (ACTIVE MOTIF, Cat. No. 31889) • 4. KAT6B (ACTIVE MOTIF, Cat. No. 81224) • 5. Acetyl coenzyme A, [Acetyl-^3H, 250 μCi (9.25 MBq](PEIRKIN4 ELMER, Cat. No. NET290250UC) • 6. Acetyl coenzyme A (CAYMVAN, Cat. No. 16160) • 7. 384-well Flashplate (Perkin Elmer, Cat. No. SMP410A001PK) • 8. Garcinol (MCE, Cat. No. HY-107569) • 9. Automatic microplate pipetting system (Precision, PRC384U, BioTek) • 10. Ultrasonic nanoliter liquid handling system (Echo 650 Liquid Handler, Echo 650, Labcyte) • 11. Centrifuge (Avanti J-15R, Beckman Coulter) • 12. Liquid scintillation counter (Microplate Counter, Microbeta2, Perkin Elmer)
(§3) • 1. For KAT6A and KAT7, a 1× assay buffer was prepared as follows: 10 mM Tris-HCl pH 8.0, 0.01% Tween-20, and 1 mM DTT; for KAT6B and KAT5, a 1× assay buffer was prepared as follows: 50 mM Tris-HCl pH 8.0, 0.05% Tween-20, and 1 mM DTT. • 2. Compound preparation: For KAT6A, KAT6B, and KAT7, the final concentration of the compounds started at 1 μM, followed by a 5-fold serial dilution across a total of 7 concentration gradients; for KAT5, the final concentration of the compounds started at 10 μM, followed by a 5-fold serial dilution across a total of 7 concentration gradients. • 3. Substrate reaction solution preparation: The mixed substrates of H4 peptide and [3H]acetyl coenzyme A at final concentrations were prepared using the respective 1× assay buffers, as shown in Table 4.
(§4) • 1. The enzyme solution was transferred to 384-well reaction plates at 10 μL/well. For each negative control well, 10 μL of the 1× assay buffer was transferred. The plates were then centrifuged at 1000 RPM for 1 min and incubated at room temperature for 15 min. • 2. The substrate reaction solution was added at 10 μL/well, and the plates were centrifuged at 1000 RPM for 1 min to start the reaction. • 3. The samples for KAT6A, KAT6B, KAT7, KAT8, and KAT5 were then incubated at room temperature for 60 min, 120 min, 45 min, 60 min, and 120 min, respectively. • 4. Stop solution preparation: A stop solution was prepared by diluting 50 µM cold Ac-CoA in 1× buffer. • 5. The stop solution was added at 10 μL/well, and the plates were centrifuged at […] for 1 min to stop the reaction. • 6. The mixtures in the reaction plates were transferred at 25 μL/well to new plates (Streptavidin FlashPlate HTS PLUS, High Capacity, 384-well). • 7. The plates were incubated at room temperature for at least 60 min and then • 8. read using MicroBeta2.
(§5) Raw data were obtained in EXCEL, and the inhibition rates were calculated:
(§6) [formula] [formula] • Max signal: reaction signal from enzyme and substrate; • Sample signal: signal from sample; • Min signal: signal from substrate only (negative control).
(§7) The inhibition rate data were imported into XLFit Excel, and IC50 values were obtained using formula (2):
(§8) [formula] [formula] • Top: value of the top plateau of the fitted regression curve; • Bottom: value of the bottom plateau of the fitted regression curve; • HillSlope: slope of the fitted regression curve.
(§9) The IC50 value was substituted into formula (3) to obtain the enzymatic activity inhibition constant Ki:
(§10) [formula] • [S]: substrate concentration; Km: Michaelis constant.

In series [3] the target is T2, KAT5 (Homo sapiens, UniProt Q92993).
T2 construct: purchased BPS 79422
The series can be described thus: Inhibition of human KAT enzymes, radioisotope method: KAT5. Type of series: biochemical. The note with it: for pKi: KAT5 (full-length), radioisotope method; for KAT5/ KAT6A / KAT5/ KAT6B: selectivity, ratio of Ki.
Description: as §1, §2, §3, §4, §5, §6, §7, §8, §9, §10

In series [4] the target is T3, KAT6A (Homo sapiens, UniProt Q92794).
T3 construct: purchased ACTIVE MOTIF 81223
As to the kind of experiment: Inhibition of human KAT enzymes, radioisotope method: KAT6A. Format: biochemical. The following applies: KAT6A (488-778).
Description: as §1, §2, §3, §4, §5, §6, §7, §8, §9, §10

Series [5] relates to breast cancer cell line ZR-75-1. The series can be described thus: Inhibition of proliferation of breast cancer cell line ZR-75-1 (CellTiter-Glo). Type of series: cell-based. The following applies: Homo sapiens, 240 h, proliferation of ZR-75-1 cells, 10 days of incubation, read-out: IC50 (KAT6A).
Series [6] has as its target T4, KAT6B (Homo sapiens, UniProt Q8WYB5).
T4 construct: purchased ACTIVE MOTIF 81224
As to the kind of experiment: Inhibition of human KAT enzymes, radioisotope method: KAT6B. The note with it: KAT6B (718-1008). Format: biochemical.
Description: as §1, §2, §3, §4, §5, §6, §7, §8, §9, §10

Series [7] in a line: Pharmacokinetics in SD (Sprague Dawley) rats. The following applies: rat, plasma, female SD rats; for half-life: read-out: T1/2 (half-life) (converted). Type of series: in vivo. How it is done: Test Example 3: Determination of Pharmacokinetic Data of Compounds in SD (Sprague Dawley) Rats
The pharmacokinetic characteristics of some of the compounds of the present disclosure were evaluated by a pharmacokinetic experiment in SD rats.
Female SD rats aged 6-8 weeks from Shanghai Jihui Laboratory Animal Care Co., Ltd. were selected. The test animals were fasted overnight before administration, and feeding was resumed 4 h after administration. The compounds were dissolved in 5% DMSO+5% Tween 80+90% normal saline. For a single intravenous administration, the administration dose was 1 mg/kg, and the administration volume was 2 mL/kg. For a single intragastric administration, the administration dose was 2 mg/kg, and the administration volume was 10 mL/kg. Blood was collected at 0.083 h (for intravenous administration only), 0.25 h, 0.5 h, 1 h, 2 h, 4 h, 8 h, and 24 h after administration. At each indicated time point, about 150 μL of blood sample was collected from each rat via the vein and placed into an EDTA-K2 tube. Each sample was centrifuged (2000 g, 4° C., 5 min) within 15 min after sample collection to obtain plasma, which was then stored at −70° C. until analysis. The concentration of the corresponding test compound in the SD rat plasma was determined using UPLC-MS/MS.

T2 sequence (Q92993 whole entry): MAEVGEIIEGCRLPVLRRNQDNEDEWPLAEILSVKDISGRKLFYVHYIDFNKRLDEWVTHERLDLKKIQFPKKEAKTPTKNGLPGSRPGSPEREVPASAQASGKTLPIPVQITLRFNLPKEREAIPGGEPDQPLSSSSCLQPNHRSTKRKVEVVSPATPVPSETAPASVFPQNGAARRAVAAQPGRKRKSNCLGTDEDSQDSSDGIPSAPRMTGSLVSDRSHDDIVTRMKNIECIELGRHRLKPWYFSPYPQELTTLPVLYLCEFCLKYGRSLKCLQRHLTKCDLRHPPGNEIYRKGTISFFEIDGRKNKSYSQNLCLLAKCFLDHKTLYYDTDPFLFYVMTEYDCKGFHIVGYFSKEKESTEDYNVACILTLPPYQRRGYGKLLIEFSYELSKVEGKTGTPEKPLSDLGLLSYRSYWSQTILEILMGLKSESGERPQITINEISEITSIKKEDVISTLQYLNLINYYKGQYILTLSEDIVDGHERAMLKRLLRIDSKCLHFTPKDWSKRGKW
T1 sequence (O95251 whole entry): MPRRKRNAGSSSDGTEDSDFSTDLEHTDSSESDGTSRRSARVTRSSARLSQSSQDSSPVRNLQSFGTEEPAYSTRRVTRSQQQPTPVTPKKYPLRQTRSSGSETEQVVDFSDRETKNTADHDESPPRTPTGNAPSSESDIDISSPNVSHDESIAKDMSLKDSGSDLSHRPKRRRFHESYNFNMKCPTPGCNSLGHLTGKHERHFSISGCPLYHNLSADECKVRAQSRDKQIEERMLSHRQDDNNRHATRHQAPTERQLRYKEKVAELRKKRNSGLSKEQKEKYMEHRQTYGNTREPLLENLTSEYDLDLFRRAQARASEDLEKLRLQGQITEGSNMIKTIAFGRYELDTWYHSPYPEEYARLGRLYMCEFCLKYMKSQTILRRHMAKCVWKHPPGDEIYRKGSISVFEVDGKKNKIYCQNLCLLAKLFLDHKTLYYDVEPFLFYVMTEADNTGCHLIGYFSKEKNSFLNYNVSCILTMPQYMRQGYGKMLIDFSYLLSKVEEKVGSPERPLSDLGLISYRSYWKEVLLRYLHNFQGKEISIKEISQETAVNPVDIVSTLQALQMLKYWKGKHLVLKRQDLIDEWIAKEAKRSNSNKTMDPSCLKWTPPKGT
T3 sequence (Q92794 whole entry): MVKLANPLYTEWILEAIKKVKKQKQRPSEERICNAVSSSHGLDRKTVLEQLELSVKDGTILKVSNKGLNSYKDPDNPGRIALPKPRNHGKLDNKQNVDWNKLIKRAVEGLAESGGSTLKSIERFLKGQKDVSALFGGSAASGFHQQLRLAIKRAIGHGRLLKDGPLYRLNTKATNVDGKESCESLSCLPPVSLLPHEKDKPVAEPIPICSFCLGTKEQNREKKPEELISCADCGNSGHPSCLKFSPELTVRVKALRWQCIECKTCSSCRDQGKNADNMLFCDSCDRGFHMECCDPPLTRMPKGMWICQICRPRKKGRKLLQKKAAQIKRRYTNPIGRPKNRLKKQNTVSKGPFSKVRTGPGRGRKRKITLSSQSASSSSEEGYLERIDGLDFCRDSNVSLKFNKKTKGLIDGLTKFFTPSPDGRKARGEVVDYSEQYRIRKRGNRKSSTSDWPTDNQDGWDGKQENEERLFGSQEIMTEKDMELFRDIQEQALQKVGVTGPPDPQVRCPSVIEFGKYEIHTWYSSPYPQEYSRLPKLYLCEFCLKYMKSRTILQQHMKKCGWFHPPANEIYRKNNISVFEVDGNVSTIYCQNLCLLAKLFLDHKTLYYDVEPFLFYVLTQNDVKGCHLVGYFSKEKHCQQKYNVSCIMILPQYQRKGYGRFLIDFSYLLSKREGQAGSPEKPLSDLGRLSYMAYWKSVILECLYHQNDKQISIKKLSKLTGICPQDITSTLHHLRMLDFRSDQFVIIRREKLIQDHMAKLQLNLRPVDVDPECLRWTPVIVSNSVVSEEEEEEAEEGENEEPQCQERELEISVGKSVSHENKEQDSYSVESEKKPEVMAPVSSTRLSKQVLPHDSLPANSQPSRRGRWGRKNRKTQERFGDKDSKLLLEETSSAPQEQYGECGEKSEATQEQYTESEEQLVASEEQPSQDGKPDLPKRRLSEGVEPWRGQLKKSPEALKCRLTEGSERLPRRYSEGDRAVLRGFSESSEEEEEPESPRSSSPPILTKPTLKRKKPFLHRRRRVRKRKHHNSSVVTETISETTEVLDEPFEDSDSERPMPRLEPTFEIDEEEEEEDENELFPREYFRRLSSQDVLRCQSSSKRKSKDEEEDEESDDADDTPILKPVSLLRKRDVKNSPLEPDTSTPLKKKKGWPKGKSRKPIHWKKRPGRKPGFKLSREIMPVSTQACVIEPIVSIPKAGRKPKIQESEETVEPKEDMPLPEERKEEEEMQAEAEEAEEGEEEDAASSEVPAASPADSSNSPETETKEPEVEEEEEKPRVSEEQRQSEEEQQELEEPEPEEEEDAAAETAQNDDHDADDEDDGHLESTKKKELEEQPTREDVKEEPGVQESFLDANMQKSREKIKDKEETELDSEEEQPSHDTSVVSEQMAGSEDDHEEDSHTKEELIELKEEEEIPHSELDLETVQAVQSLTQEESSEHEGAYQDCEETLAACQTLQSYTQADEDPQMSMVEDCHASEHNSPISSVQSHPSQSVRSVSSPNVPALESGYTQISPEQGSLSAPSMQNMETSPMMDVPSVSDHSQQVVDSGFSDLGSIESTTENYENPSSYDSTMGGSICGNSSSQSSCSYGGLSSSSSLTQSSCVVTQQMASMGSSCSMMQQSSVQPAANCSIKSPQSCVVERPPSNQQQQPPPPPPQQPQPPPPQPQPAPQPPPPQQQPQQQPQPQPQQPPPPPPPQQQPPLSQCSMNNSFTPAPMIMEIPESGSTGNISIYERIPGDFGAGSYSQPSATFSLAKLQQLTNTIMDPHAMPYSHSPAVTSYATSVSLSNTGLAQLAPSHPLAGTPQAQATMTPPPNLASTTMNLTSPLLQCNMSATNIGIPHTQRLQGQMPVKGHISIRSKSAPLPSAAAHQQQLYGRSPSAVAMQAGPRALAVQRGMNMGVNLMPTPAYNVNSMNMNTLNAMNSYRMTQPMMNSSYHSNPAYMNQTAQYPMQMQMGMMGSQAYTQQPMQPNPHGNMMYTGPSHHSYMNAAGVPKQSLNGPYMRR

For the compound `COc1cccc(OC)c1S(=O)(=O)Nc1noc2cc(Cn3cccn3)cc(OC)c12` [CTx-648], the “anti-tumor activity against ER-positive breast cancer” value in series [1] is “excellent in vivo and in vitro anti-tumor activity”.
Regarding `COc1ccc2c(c1S(=O)(=O)Nc1noc3cc(Cn4cccn4)c(F)c(OC)c13)OCCN2C(C)=O` [Compound 110, N-(6-((1H-Pyrazol-1-yl)methyl)-5-fluoro-4-methoxybenzo[d]isoxazol-3-yl)-4-acetyl-7-methoxy-3,4-dihydro-2H-benzo[b][1,4]oxazine-8-sulfonamide], in series [2], the negative logarithm of the Ki (pKi) is 7.19, the “KAT7/ KAT6A” value came out at 223 and the “KAT7/ KAT6B” value turned out to be 40. For the same compound, in series [3], the pKi is 5.94, the “KAT5/ KAT6A” value was 3967 and the “KAT5/ KAT6B” value came out at 719. This compound also had a pKi in series [4] of 9.54. Further, the negative-log IC50 (pIC50) in series [5] was 8.70 to 9.30. The compound further had a pKi in series [6] of 8.80.
In the case of `COc1ccc2c(c1S(=O)(=O)Nc1noc3cc(Cn4cccn4)c(F)c(OC)c13)OCCN2S(C)(=O)=O` [Compound 121, N-(6-((1H-Pyrazol-1-yl)methyl)-5-fluoro-4-methoxybenzo[d]isoxazol-3-yl)-7-methoxy-4-(methylsulfonyl)-3,4-dihydro-2H-benzo[b][1,4]oxazine-8-sulfonamide], in series [2], the pKi was 7.02, the “KAT7/ KAT6A” value was 343 and the “KAT7/ KAT6B” value worked out at 107. Also, in series [3], the pKi was 6.24, the “KAT5/ KAT6A” value worked out at 2061 and the “KAT5/ KAT6B” value stood at 641. In series [4], this compound gave a pKi of 9.55. Besides, in series [5], the negative-log IC50 (pIC50) was 8.00 to 8.70. In addition, in series [6], the pKi was 9.05.
With `COc1ccc2c(c1S(=O)(=O)Nc1noc3cc(Cn4cccn4)c(F)c(OC)c13)OCCC2(F)F` [Compound 104, N-(6-((1H-Pyrazol-1-yl)methyl)-5-fluoro-4-methoxybenzo[d]isoxazol-3-yl)-4,4-difluoro-7-methoxychromane-8-sulfonamide], the pIC50 in series [5] was over 9.30. Besides, in series [7] (iv, i.v. 1 mg/kg), the AUC(0-inf) came out at 4200 ng·h/mL and the half-life was 2.83 h. For the same compound, the clearance in series [7] (iv, i.v. 1 mg/kg, read-out: CL (clearance rate)) worked out at 3.98 mL/min/kg. Moreover, in series [7] (iv, i.v. 1 mg/kg, read-out: Vdss (apparent volume of distribution)), the Vd came out at 0.705 L/kg. Further, in series [7] (po, p.o. 2 mg/kg), the AUC(0-inf) turned out to be 6110 ng·h/mL and the half-life was 2.13 h. Further, the bioavailability in series [7] (po, p.o. 2 mg/kg, read-out: F (bioavailability)) was 72.7%.
As to `COc1ccc(C(C)(C)O)cc1S(=O)(=O)Nc1noc2cc(Cn3cccn3)cc(OC)c12` [Compound 13, N-(6-((1H-Pyrazol-1-yl)methyl)-4-methoxybenzo[d]isoxazol-3-yl)-5-(2-hydroxypropan-2-yl)-2-methoxybenzenesulfonamide], the pIC50 in series [5] is 8.70 to 9.30.
As to `COc1ccc2c(c1S(=O)(=O)Nc1noc3cc(Cn4cccn4)cc(OC)c13)OCCN2C` [Compound 41, N-(6-((1H-Pyrazol-1-yl)methyl)-4-methoxybenzo[d]isoxazol-3-yl)-7-methoxy-4-methyl-3,4-dihydro-2H-benzo[b][1,4]oxazine-8-sulfonamide], the pIC50 in series [5] was 8.70 to 9.30.
